Assay results reported in patent US20230372498A1, “PLK1 SELECTIVE DEGRADATION INDUCING COMPOUND” (UPPTHERA, priority 2020, published 2023).

Molecular target: T1, PLK1 (Homo sapiens, UniProt P53350)
T1 construct: endogenous in cells; host or cells: HeLa
Assay: PLK1 protein degradation in HeLa cells, Western blotting (PLK1/GAPDH ratio)
Assay type: cell-based
Details: 6 hours compound incubation; for DC50: measured only if the grade of Dmax is A or B; for Dmax: thymidine block and release, 10 points three-fold from 3 μM, PLK1 to GAPDH ratio, read-out: Dmax
From the text: The HeLa cell line was purchased from Korea Cell Line Bank (KCLB), Seoul, Korea. The passage in cell culture was maintained at P115 to P125.
For cell culture, DMEM (Gibco, Cat. No. 1195-65; Lot. No. 2085318), FBS (Gibco, Cat. No. 16000-044; Lot. No. 2097593), Penicillin/Streptomycin (PS) (Gibco, Cat. No. 15140-122; Lot. No. 2058855), 100 mm^2 cell culture dish (SPL, Cat. No. 20100), 150 mm^2 cell culture dish (SPL, Cat. No. 20150), 12-well culture plate (SPL, Cat. No. 30012), PBS pH 7.4 (Gibco, Cat. No. 10010-023; Lot. No. 2085080), TrypLE™ Express (Gibco, Cat. No. 12605-010; Lot No. 2070638), Counting Chamber (Hematocytometer) (Hirschmann, Cat. No. 8100204), and 0.4% Trypan Blue Solution (DYNEBIO, Cat. No. CBT3710; Lot. No. 20190723) were used.
2×10^5 cells were seeded for each well of a 12-well plate (SPL), and the cells were cultured in the culture medium in a total volume of 2 ml.
The compounds of Examples were completely dissolved in DMSO and used in the experiment, and thymidine was completely dissolved in DW and used in the experiment. For thymidine block, the products were treated with 2 mM of thymidine (Sigma-Aldrich Cat. No. T9250-5G) and then incubated for 24 hours.
For release and chemical treatment, the medium was suctioned and washed 3 times with 1×PBS. Complete media was added, followed by incubation for 4 hours in a CO2 incubator. Each compound was diluted three folds from the highest concentration of 3 μM to the lowest concentration in 10 points and then incubated for 6 hours again.
For SDS-PAGE and Western blotting, 1×RIPA lysis buffer (Rockland, Cat. No. MB-030-0050; Lot no. 39751), 100× Protease Inhibitor Cocktail (Quartett, Cat. No. PPI1015; Lot no. PCO50038424), Pierce™ BCA protein assay kit (ThermoScientific, Cat. No. 23225; Lot no. UC276876), albumin standard (ThermoScientific, Cat. No. 23209; Lot no. UB269561), 4-15% Mini-PROTEAN TGX stain-free gel (Bio-rad, Cat. No. 4568085; Lot no. L007041B), 10× Tris/Glycine/SDS buffer (Bio-rad, Cat. No. 1610732; Lot no. 10000044375B); 10×TBS (Bio-rad, Cat. No. 1706435; Lot no. 1000045140B), 10% Tween 20 (Cat. No. 1610781; Lot no. L004152B), Color protein standard broad range (NEB, Cat. No. P7719S; Lot no. 10040349), 4× Laemmli sample buffer (Bio-rad, Cat. No. 1610747; Lot no. L004133B), β-mercaptoethanol (Sigma-Aldrich, Cat. No. M3148; Lot no. 60-24-2), SuperBlock™ T20 (TBS) blocking buffer (ThermoScientific, Cat. No. 37536; Lot no. UC282578), 1M sodium azide solution (Sigma-Aldrich, Cat. No. 08591-1 mL-F; Lot no. BCBV4989), α-Rabbit pAb to Ms IgG (abcam, Cat. No. ab97046; Lot no. GR3252115-1), α-Goat pAb to Rb IgG (CST, Cat. No. 7074S; Lot no. 28), α-GAPDH (abcam, Cat. No. ab8245; Lot no. GR3275542-2), α-Plk1 (CST, Cat. No. 208G4), α-BRD4 (CST, Cat. No. 13440S), ECL™ Prime western blotting reagents (GE Healthcare, Cat. No. RPN2232; Lot no. 17001655), Ponceau S solution (Sigma-Aldrich, Cat. No. P7170; Lot no. SLBV4112), Difco™ Skim milk (BD, Cat. No. 232100; Lot no. 8346795), and iBlot® 2 NC Regular stacks (Invitrogen, Cat. No. IB323001; Lot no. 2NR110619-02) were used.
For cell harvesting, the cells were first separated from the plate using trypsin and then washed with the medium and PBS. Specifically, the medium was suctioned off and washed with 1 mL of PBS, and PBS was suctioned off. The cells were treated with 0.5 mL TrypLE™ Express at 37° C. for 7 minutes to separate the cells, and then 0.5 mL of complete medium was added to collect 1 mL of cell culture solution. Then, 1 mL of the cell collection solution was centrifuged at 8,000 rpm for 120 seconds, and the supernatant was removed. After washing with 0.2 mL of PBS, the PBS was removed.
For cell lysis, a lysis buffer was added and cell debris was removed to obtain a cell lysate. Specifically, the cells were treated with 70 μL of 1×RIPA buffer containing a protease inhibitor and incubated for 30 minutes on ice. Then, the cells were centrifuged at 4° C. and 15,000 rpm for 10 minutes to obtain a cell lysate. […]

T1 sequence (P53350 whole entry): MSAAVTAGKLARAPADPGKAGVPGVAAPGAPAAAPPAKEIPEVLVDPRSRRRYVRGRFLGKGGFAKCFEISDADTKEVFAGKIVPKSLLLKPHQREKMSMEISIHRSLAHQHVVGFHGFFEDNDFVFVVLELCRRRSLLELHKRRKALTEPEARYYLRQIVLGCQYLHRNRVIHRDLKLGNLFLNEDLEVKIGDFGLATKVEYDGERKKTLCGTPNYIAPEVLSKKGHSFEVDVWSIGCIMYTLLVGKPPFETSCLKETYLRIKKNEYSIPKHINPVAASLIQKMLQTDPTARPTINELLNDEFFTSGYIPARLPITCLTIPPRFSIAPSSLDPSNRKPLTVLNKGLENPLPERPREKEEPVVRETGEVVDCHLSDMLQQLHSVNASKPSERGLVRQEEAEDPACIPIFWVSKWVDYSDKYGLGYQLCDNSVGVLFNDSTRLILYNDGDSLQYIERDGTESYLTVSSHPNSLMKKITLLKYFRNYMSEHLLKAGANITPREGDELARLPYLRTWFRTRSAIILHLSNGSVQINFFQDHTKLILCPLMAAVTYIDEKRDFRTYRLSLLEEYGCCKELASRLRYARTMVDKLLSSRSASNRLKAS

CCC(C)Oc1cc(C(=O)NC2CCN(CCOCCOCCNc3cccc4c3C(=O)N(C3CCC(=O)NC3=O)C4=O)CC2)c(F)cc1Nc1ncc2c(n1)N(C1CCCC1)CC(F)(F)C(=O)N2C (centres unmarked) [Example 94, 5-(sec-butoxy)-4-((9-cyclopentyl-7,7-difluoro-5-methyl-6-oxo-6,7,8,9-tetrahydro-5H-pyrimido[4,5-b][1,4]diazepin-2-yl)amino)-N-(1-(2-(2-(2-((2-(2,6-dioxopiperidin-3-yl)-1,3-dioxoisoindolin-4-yl)amino)ethoxy)ethoxy)ethyl)piperidin-4-yl)-2-fluorobenzamide]
DC50: > 500 nM
Dmax: 60 to 80%

COc1cc(C(=O)N[C@H]2CCN(C(=O)CCC(=O)N3CCN(c4cccc5c4C(=O)N(C4CCC(=O)NC4=O)C5=O)CC3)C2)c(F)cc1Nc1ncc2c(n1)N(C1CCCC1)CC(F)(F)C(=O)N2C (stereo partly drawn) [Compound 140, 4-((9-cyclopentyl-7,7-difluoro-5-methyl-6-oxo-6,7,8,9-tetrahydro-5H-pyrimido[4,5-b][1,4]diazepin-2-yl)amino)-N-((3S)-1-(4-(4-(2-(2,6-dioxopiperidin-3-yl)-1,3-dioxoisoindolin-4-yl)piperazin-1-yl)-4-oxobutanoyl)pyrrolidin-3-yl)-2-fluoro-5-methoxybenzamide]
DC50: ≤ 50 nM
Dmax: ≥ 80%

COc1cc(C(=O)NC2CCN(CCCOCCCOCCCOCCNc3cccc4c3C(=O)N(C3CCC(=O)NC3=O)C4=O)CC2)c(F)cc1Nc1ncc2c(n1)N(C1CCCC1)CC(F)(F)C(=O)N2C (centres unmarked) [Compound 24, 4-((9-cyclopentyl-7,7-difluoro-5-methyl-6-oxo-6,7,8,9-tetrahydro-5H-pyrimido[4,5-b][1,4]diazepin-2-yl)amino)-N-(1-(3-(3-(3-(2-((2-(2,6-dioxopiperidin-3-yl)-1,3-dioxoisoindolin-4-yl)amino)ethoxy)propoxy)propoxy)propyl)piperidin-4-yl)-2-fluoro-5-methoxybenzamide]
DC50: ≤ 50 nM
Dmax: ≥ 80%

COc1cc(C(=O)NC2CCN(CCOCCOCCCc3cccc4c3C(=O)N(C3CCC(=O)NC3=O)C4=O)CC2)c(F)cc1Nc1ncc2c(n1)N(C1CCCC1)CC(F)(F)C(=O)N2C (centres unmarked) [Compound 55, 4-((9-cyclopentyl-7,7-difluoro-5-methyl-6-oxo-6,7,8,9-tetrahydro-5H-pyrimido[4,5-b][1,4]diazepin-2-yl)amino)-N-(1-(2-(2-(3-(2-(2,6-dioxopiperidin-3-yl)-1,3-dioxoisoindolin-4-yl)propoxy)ethoxy)ethyl)piperidin-4-yl)-2-fluoro-5-methoxybenzamide]
DC50: ≤ 500 nM
Dmax: 60 to 80%

COc1cc(C(=O)NC2CCCN(CCOCCNc3cccc4c3C(=O)N(C3CCC(=O)NC3=O)C4=O)C2)c(F)cc1Nc1ncc2c(n1)N(C1CCCC1)CC(F)(F)C(=O)N2C (centres unmarked) [Example 105, 4-((9-cyclopentyl-7,7-difluoro-5-methyl-6-oxo-6,7,8,9-tetrahydro-5H-pyrimido[4,5-b][1,4]diazepin-2-yl)amino)-N-(1-(2-(2-((2-(2,6-dioxopiperidin-3-yl)-1,3-dioxoisoindolin-4-yl)amino)ethoxy)ethyl)piperidin-3-yl)-2-fluoro-5-methoxybenzamide]
DC50: ≤ 500 nM
Dmax: 60 to 80%

COc1cc(C(=O)NC2CCN(CCOCCOCCOCCOCCCc3cccc4c3C(=O)N(C3CCC(=O)NC3=O)C4=O)CC2)c(F)cc1Nc1ncc2c(n1)N(C1CCCC1)CC(F)(F)C(=O)N2C (centres unmarked) [Compound 53, 4-((9-cyclopentyl-7,7-difluoro-5-methyl-6-oxo-6,7,8,9-tetrahydro-5H-pyrimido[4,5-b][1,4]diazepin-2-yl)amino)-N-(1-(15-(2-(2,6-dioxopiperidin-3-yl)-1,3-dioxoisoindolin-4-yl)-3,6,9,12-tetraoxapentadecyl)piperidin-4-yl)-2-fluoro-5-methoxybenzamide]
DC50: ≤ 50 nM
Dmax: ≥ 80%

COc1cc(C(=O)NC2CN(CCOCCOCCNc3cccc4c3C(=O)N(C3CCC(=O)NC3=O)C4=O)C2)c(F)cc1Nc1ncc2c(n1)N(C1CCCC1)CC(F)(F)C(=O)N2C (centres unmarked) [Compound 123, 4-((9-cyclopentyl-7,7-difluoro-5-methyl-6-oxo-6,7,8,9-tetrahydro-5H-pyrimido[4,5-b][1,4]diazepin-2-yl)amino)-N-(1-(2-(2-(2-((2-(2,6-dioxopiperidin-3-yl)-1,3-dioxoisoindolin-4-yl)amino)ethoxy)ethoxy)ethyl)azetidin-3-yl)-2-fluoro-5-methoxybenzamide]
DC50: ≤ 50 nM
Dmax: ≥ 80%

COc1cc(C(=O)N[C@@H]2CCN(C(=O)CCN3CCN(c4cccc5c4C(=O)N(C4CCC(=O)NC4=O)C5=O)CC3)C2)c(F)cc1Nc1ncc2c(n1)N(C1CCCC1)CC(F)(F)C(=O)N2C (stereo partly drawn) [Compound 132, 4-((9-cyclopentyl-7,7-difluoro-5-methyl-6-oxo-6,7,8,9-tetrahydro-5H-pyrimido[4,5-b][1,4]diazepin-2-yl)amino)-N-((3R)-1-(3-(4-(2-(2,6-dioxopiperidin-3-yl)-1,3-dioxoisoindolin-4-yl)piperazin-1-yl)propanoyl)pyrrolidin-3-yl)-2-fluoro-5-methoxybenzamide]
DC50: ≤ 50 nM
Dmax: ≥ 80%

COc1cc(C(=O)NC2CCN(CCCC(=O)Nc3cccc4c3C(=O)N(C3CCC(=O)NC3=O)C4=O)CC2)c(F)cc1Nc1ncc2c(n1)N(C1CCCC1)CC(F)(F)C(=O)N2C (centres unmarked) [Compound 37, 4-((9-cyclopentyl-7,7-difluoro-5-methyl-6-oxo-6,7,8,9-tetrahydro-5H-pyrimido[4,5-b][1,4]diazepin-2-yl)amino)-N-(1-(4-((2-(2,6-dioxopiperidin-3-yl)-1,3-dioxoisoindolin-4-yl)amino)-4-oxobutyl)piperidin-4-yl)-2-fluoro-5-methoxybenzamide]
DC50: ≤ 500 nM
Dmax: 60 to 80%

COc1cc(C(=O)N[C@@H]2CCN(C(=O)CCCCN3CCN(c4ccc5c(c4)C(=O)N(C4CCC(=O)NC4=O)C5=O)CC3)C2)c(F)cc1Nc1ncc2c(n1)N(C1CCCC1)CC(F)(F)C(=O)N2C (stereo partly drawn) [Compound 139, 4-((9-cyclopentyl-7,7-difluoro-5-methyl-6-oxo-6,7,8,9-tetrahydro-5H-pyrimido[4,5-b][1,4]diazepin-2-yl)amino)-N-((3R)-1-(5-(4-(2-(2,6-dioxopiperidin-3-yl)-1,3-dioxoisoindolin-5-yl)piperazin-1-yl)pentanoyl)pyrrolidin-3-yl)-2-fluoro-5-methoxybenzamide]
DC50: ≤ 50 nM
Dmax: ≥ 80%
